Measured values published in patent US7601713B2, “Kinase inhibitors and their uses” (Rigel Pharmaceuticals, Inc., priority 2005, dated 2009).
Where two headings read alike, the source gives them in different places.

Tests used:
[1] = target: T1, Axl kinase (Homo sapiens, UniProt P30530); assay: Phospho-Akt in-cell Western assay (Axl antibody cross-linking, Hela cells); type: cell-based; settings: phospho-Akt readout, read-out: IC50, inhibition of Axl kinase
T1 construct: endogenous in cells; host or cells: HeLa cells
T1 sequence (P30530 26-894): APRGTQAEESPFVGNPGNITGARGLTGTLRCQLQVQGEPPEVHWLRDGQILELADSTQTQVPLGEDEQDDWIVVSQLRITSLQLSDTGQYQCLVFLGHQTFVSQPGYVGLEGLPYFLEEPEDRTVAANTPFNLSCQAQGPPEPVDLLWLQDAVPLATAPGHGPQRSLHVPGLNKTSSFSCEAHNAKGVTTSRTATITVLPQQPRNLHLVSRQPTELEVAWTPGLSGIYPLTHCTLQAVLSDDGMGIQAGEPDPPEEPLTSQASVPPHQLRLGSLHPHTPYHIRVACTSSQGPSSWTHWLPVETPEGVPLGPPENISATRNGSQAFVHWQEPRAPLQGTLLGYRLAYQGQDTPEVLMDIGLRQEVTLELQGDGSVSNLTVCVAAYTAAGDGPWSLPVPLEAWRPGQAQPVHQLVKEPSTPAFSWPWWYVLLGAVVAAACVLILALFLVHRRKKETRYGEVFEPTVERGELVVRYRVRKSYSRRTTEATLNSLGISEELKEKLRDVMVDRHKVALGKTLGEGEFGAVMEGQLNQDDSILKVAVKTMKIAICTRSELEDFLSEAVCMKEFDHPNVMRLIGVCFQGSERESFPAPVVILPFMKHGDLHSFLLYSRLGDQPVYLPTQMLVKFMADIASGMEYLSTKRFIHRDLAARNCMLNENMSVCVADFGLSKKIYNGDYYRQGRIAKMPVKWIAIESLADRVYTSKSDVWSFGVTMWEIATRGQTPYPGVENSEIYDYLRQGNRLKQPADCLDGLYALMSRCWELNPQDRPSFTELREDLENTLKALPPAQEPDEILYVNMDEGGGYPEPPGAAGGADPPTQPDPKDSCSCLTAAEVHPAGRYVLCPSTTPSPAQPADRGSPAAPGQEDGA
In short: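 HeLa cells were starved 24 h in 0.5% FCS with 500 ng/mL Axl/Fc, pretreated with compound 1 h at 37 °C, then stimulated 5 min by cross-linked anti-Axl antibodies. Phospho-Akt was detected by in-cell chemiluminescent immunoassay and normalized to crystal violet cell number at 590 nm.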

[2] = target: Syk kinase (Homo sapiens, UniProt P43405); assay: cell-based Syk assay; settings: read-out: IC50, inhibition of Syk kinase
[3] = target: PRK1 kinase (Homo sapiens, UniProt Q16512); assay: PRK1 kinase inhibition; type: biochemical
[4] = target: kinase Lyn b (Homo sapiens, UniProt P07948); assay: Lyn b kinase inhibition; type: biochemical
[5] = target: Lck kinase (Homo sapiens, UniProt P06239); assay: Lck kinase inhibition; type: biochemical
[6] = tested on: JAK kinases (JAK1 and JAK3); assay: JAK inhibition: IL-4-stimulated CD23 upregulation in human Ramos B-cells, FACS; type: cell-based; settings: IL-4 stimulated Ramos B-cells, read-out: IC50, inhibition of JAK kinases in cellular assay
In short: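 Ramos B-cells in RPMI with 5% FBS were pre-incubated with compound for 1 h at 37 °C, then stimulated with IL-4 (50 U/ml final) for 20–24 h. CD23 upregulation was measured by anti-CD23-PE staining and FACS.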

[7] = target: Aurora kinase B (Homo sapiens, UniProt Q96GD4); settings: compared to the (1S,2S,3R,4R) diastereomers; cited from earlier work
[8] = tested on: tumor cell lines; settings: cited from earlier work; for antiproliferative activity against tumor cell types: in vitro assays, variety of tumor cell lines
[9] = tested on: Aurora kinases; settings: cited from earlier work

Chain of kinase Lyn b (P07948 1-491 isoform P07948-2): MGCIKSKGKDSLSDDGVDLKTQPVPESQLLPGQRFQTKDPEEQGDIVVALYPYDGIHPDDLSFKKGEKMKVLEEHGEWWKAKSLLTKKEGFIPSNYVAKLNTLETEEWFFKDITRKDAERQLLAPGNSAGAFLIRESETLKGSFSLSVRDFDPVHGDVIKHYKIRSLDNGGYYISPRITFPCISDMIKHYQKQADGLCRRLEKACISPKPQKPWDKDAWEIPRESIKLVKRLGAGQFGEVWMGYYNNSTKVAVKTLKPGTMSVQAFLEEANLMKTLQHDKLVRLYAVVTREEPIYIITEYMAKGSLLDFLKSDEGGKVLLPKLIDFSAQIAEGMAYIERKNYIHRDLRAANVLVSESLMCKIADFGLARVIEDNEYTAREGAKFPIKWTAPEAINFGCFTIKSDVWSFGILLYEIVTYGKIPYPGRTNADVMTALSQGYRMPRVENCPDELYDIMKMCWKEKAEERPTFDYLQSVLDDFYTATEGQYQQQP
Chain of Lck kinase (P06239 whole entry): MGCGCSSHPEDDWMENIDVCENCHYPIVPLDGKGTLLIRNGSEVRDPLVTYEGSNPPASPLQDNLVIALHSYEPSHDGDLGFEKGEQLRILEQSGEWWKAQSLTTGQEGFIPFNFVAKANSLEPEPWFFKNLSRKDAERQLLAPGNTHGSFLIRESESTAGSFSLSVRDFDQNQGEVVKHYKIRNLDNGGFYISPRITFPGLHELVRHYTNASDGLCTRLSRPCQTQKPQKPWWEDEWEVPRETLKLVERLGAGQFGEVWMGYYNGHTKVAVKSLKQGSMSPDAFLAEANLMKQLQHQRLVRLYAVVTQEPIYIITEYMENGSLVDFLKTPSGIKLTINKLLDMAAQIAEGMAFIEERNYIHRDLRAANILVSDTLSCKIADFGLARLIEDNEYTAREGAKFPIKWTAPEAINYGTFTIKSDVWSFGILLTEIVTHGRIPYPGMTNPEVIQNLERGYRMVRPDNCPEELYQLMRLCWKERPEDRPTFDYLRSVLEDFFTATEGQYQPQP
Chain of PRK1 kinase (Q16512 whole entry): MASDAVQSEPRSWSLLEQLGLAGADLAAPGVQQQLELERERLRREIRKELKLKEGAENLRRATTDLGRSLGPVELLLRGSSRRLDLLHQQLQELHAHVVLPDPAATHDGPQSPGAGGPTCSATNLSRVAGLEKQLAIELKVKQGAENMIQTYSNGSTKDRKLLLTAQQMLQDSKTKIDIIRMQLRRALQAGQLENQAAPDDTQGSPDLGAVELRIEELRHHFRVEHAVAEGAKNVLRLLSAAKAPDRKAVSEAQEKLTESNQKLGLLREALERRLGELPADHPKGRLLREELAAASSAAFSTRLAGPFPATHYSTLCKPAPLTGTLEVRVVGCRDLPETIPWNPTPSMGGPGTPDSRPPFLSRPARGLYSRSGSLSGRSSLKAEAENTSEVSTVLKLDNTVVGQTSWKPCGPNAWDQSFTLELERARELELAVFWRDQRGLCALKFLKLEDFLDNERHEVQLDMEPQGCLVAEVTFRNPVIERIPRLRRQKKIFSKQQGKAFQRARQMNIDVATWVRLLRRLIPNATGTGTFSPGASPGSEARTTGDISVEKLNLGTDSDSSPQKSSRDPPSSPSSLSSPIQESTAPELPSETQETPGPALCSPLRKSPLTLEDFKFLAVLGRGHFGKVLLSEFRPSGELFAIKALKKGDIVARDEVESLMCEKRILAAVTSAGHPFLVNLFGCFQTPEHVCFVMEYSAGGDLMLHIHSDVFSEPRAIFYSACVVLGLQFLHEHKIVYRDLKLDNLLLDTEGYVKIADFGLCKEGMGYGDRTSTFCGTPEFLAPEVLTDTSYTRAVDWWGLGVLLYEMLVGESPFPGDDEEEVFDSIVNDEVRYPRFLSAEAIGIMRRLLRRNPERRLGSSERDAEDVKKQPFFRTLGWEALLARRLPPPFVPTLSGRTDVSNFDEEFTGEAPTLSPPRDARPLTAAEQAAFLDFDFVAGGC
Chain of Aurora kinase B (Q96GD4 whole entry, species assumed): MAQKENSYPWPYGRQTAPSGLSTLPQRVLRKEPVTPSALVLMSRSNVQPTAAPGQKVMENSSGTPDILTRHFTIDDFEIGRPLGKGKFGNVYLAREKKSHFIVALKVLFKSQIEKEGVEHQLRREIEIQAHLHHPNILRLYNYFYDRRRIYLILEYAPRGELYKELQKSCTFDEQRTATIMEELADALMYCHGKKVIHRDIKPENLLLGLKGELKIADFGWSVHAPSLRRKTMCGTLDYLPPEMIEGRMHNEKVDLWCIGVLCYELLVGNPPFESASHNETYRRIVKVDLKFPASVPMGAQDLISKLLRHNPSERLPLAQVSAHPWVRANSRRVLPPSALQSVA

Work on `NC(=O)C1C2C=CC(C2)C1Nc1nc(Nc2cccc(CN3CCOCC3)c2)nc2[nH]ccc12` (racemic) [Compound 221, Racemic-(2-exo,3-exo)-N4-(3-aminocarbonylbicyclo [2.2.1]hept-5-en-2-yl)-N2-(3-morpholin-4-yl-methylphenyl)-1H-pyrrolo[2,3-d]pyrimidine-2,4-diamine] yielded an IC50 [1] of less than 5 µM, an IC50 [2] of less than 5 µM and an IC50 [3] of less than 5 µM.
`NC(=O)[C@@H]1[C@H](Nc2nc(Nc3ccc(Cc4ccncc4)cc3)nc3[nH]cnc23)[C@H]2C=C[C@@H]1C2` [Compound 148, (1R,2R,3S,4S)-N6-(3-Aminocarbonylbicyclo[2.2. 1]hept-5-en-2-yl)-N2-[4-(4-pyridinylmethyl)phenyl]-1H-purine-2,6-diamine] gave an IC50 [4] of less than 1 µM.
In the case of `CC(C)Oc1cccc(Nc2nc(NC3CC4CCC3C4)c3nc[nH]c3n2)c1` (racemic) [Compound 153, Racemic-(2-exo)-N6-(bicyclo[2.2.1]hept-2-yl)-N2-(3-isopropoxy)phenyl-1H-purine-2,6-diamine], the IC50 [5] is reported as less than 5 µM, the IC50 [6] is reported as less than 5 µM and the IC50 [2] is reported as less than 10 µM.
`CCOc1cccc(Nc2nc(NC3C4C=CC(C4)C3C(N)=O)c3nc[nH]c3n2)c1` (racemic) [Compound 131, Racemic-(2-exo,3-exo)-N6-(3-aminocarbonylbicyclo[2.2. 1]hept-5-en-2-yl)-N2-(3-ethoxy)phenyl-1H-purine-2,6-diamine] gave an IC50 [4] of less than 1 µM.
For `NC(=O)c1c[nH]c2ccc(Nc3nc(NC4C5C=CC(C5)C4C(N)=O)c4nc[nH]c4n3)cc12` (racemic) [Compound 152, Racemic-(2-exo,3-exo-)-N6-(3-aminocarbonylbicyclo[2.2. 1]hept-5-en-2-yl)-N2-(3-aminocarbonyl-1H-indol-5-yl)-1H-purine-2,6-diamine], the IC50 [5] was less than 5 µM and the IC50 [6] was greater than 10 µM.
For `Cc1cc(Nc2ncc(F)c(NC3C4C=CC(C4)C3C(N)=O)n2)ccc1N1CCN(C)CC1` [(1R,2R,3S,4S) diastereomer, N4-(3-aminocarbonylbicyclo [2.2.1]hept-5-en-2-yl)-5-fluoro-N2-[3-methyl-4-(4-methylpiperazin-1-yl)phenyl]-2,4-pyrimidinediamine], the “inhibition of Aurora kinase B in cells” value [7] is listed as “similarly superior results”, the “potency of (1R,2R,3S,4S) diastereomer relative to (1S,2S,3R,4R) diastereomer” value [8] is listed as “approximately 1000 fold” and the “IC50s against tumor cell lines” value ([8]; isolated stereoisomers) is listed as “nanomolar range”.
`CNC(=O)COc1cccc(Nc2nc(NC3C4C=CC(C4)C3C(N)=O)c3nc[nH]c3n2)c1` (racemic) [Compound 104] showed an IC50 [4] of less than 1 µM.
For `NC(=O)[C@@H]1[C@H](Nc2nc(Nc3cccc(F)c3)nc3[nH]cnc23)[C@H]2C=C[C@@H]1C2` [Compound 109, (1R,2R,3S,4S)-N6-(3-Aminocarbonylbicyclo[2.2. 1]hept-5-en-2-yl)-N2-(3-fluoro)phenyl-1H-purine-2,6-diamine], the IC50 [4] was less than 1 µM.
`Cc1ccc(Nc2nc(NC3C4C=CC(C4)C3C(N)=O)c3nc[nH]c3n2)cc1F` (racemic) [Compound 134, Racemic-(2-exo,3-exo)-N6-(3-aminocarbonylbicyclo[2.2. 1]hept-5-en-2-yl)-N2-(3-fluoro-4-methy)phenyl-1H-purine-2,6-diamine] showed an IC50 [4] of less than 1 µM.
Compound `NC(=O)[C@H]1[C@@H](Nc2nc(Nc3cccc(OCCN4CCOCC4)c3)nc3[nH]cnc23)[C@@H]2C=C[C@H]1C2` [Compound 113, (1S,2S,3R,4R)-N6-(3-Aminocarbonylbicyclo[2.2. 1]hept-5-en-2-yl)-N2-[3-(2-morpholin-4-yl-ethoxy)phenyl]-1H-purine-2,6-diamine] has an IC50 [4] of less than 1 µM.
For `Cc1cccc(Nc2nc(NC3CC4CCC3C4)c3nc[nH]c3n2)c1` (racemic) [Compound 151, Racemic-(2-exo)-N6-(bicyclo[2.2.1]hept-2-yl)-N2-(3-methyl)phenyl-1H-purine-2,6-diamine], the IC50 [5] was less than 5 µM and the IC50 [2] was less than 10 µM.
`NC(=O)C1C2C=CC(C2)C1Nc1nc(Nc2ccc3c(c2)OCC(=O)N3)nc2[nH]cnc12` (racemic) [Compound 107, Racemic-(2-exo,3-exo)-N6-(3-aminocarbonylbicyclo[2.2. 1]hept-5-en-2-yl)-N2-(3,4-dihydro-3-oxo-2H-1,4-benzoxazin-7-yl)-1H-purine-2,6-diamine] showed an IC50 [4] of less than 1 µM.
For `Cc1cc(Nc2ncc(F)c(NC3CCCC3C(N)=O)n2)ccc1N1CCN(C)CC1` [cis (1S,2R), N4-(2-aminocarbonylcyclopent-1-yl)-5-fluoro-N2-[4-(4-methylpiperazin-1-yl)-3-methylphenyl]-2,4-pyrimidinediamine], the “inhibition of Aurora kinases” value [9] is listed as “inhibited Aurora kinases”, the “antiproliferative activity against tumor cell types” value (“antiproliferative activity” for short) [8] is listed as “inhibit the proliferation” and the “antiproliferative activity” value ([8]; listed as cis(1S,2R)) is listed as “exhibited antiproliferative activity”.
In the case of `COc1cccc(Nc2nc(NC3CC4CCC3C4)c3nc[nH]c3n2)c1` (racemic) [Compound 154, Racemic-(2-exo)-N6-(bicyclo[2.2.1]hept-2-yl)-N2-(3-methoxy)phenyl-1H-purine-2,6-diamine], the IC50 [4] is reported as less than 1 µM.
For `NC(=O)[C@@H]1[C@H](Nc2nc(Nc3cccc(OCCN4CCOCC4)c3)nc3[nH]cnc23)[C@H]2C=C[C@@H]1C2` [Compound 112, (1R,2R,3S,4S)-N6-(3-Aminocarbonylbicyclo[2.2. 1]hept-5-en-2-yl)-N2-[3-(2-morpholin-4-yl-ethoxy)phenyl]-1H-purine-2,6-diamine], the IC50 [4] was less than 1 µM.
In the case of `COc1ccccc1Nc1nc(NC2C3C=CC(C3)C2C(N)=O)c2nc[nH]c2n1` (racemic) [Compound 136, Racemic-(2-exo,3-exo-)-N6-(3-aminocarbonylbicyclo[2.2. 1]hept-5-en-2-yl)-N2-(2-methoxy)phenyl-1H-purine-2,6-diamine], the IC50 [5] is reported as less than 10 µM, the IC50 [4] is reported as greater than 10 µM and the IC50 [2] is reported as less than 10 µM.
For `Cc1cc(Nc2ncc(F)c(NC3CCCC3C(N)=O)n2)ccc1N1CCN(C)CC1` [cis (1R,2S), N4-(2-aminocarbonylcyclopent-1-yl)-5-fluoro-N2-[4-(4-methylpiperazin-1-yl)-3-methylphenyl]-2,4-pyrimidinediamine], the “inhibition of Aurora kinases” value [9] is given as “inhibited Aurora kinases”, the “antiproliferative activity” value [8] is given as “inhibit the proliferation” and the “antiproliferative activity” value ([8]; listed as (1R,2S)) is given as “exhibited antiproliferative activity”.
With `N#Cc1ccc(-c2ccc(Nc3nc(NC4C5C=CC(C5)C4C(N)=O)c4cc[nH]c4n3)cc2)cc1` (racemic) [Compound 220, Racemic-(2-exo,3-exo)-N4-(3-aminocarbonylbicyclo [2.2.1]hept-5-en-2-yl)-N2-[(4′-cyano[1,1′-biphenyl]-4-yl)]-1H-pyrrolo[2,3-d]pyrimidine-2,4-diamine] the IC50 [1] was greater than 10 µM and the IC50 [3] was less than 5 µM.
For `NC(=O)C1C2C=CC(C2)C1Nc1nc(Nc2cccc3[nH]ccc23)nc2[nH]cnc12` (racemic) [Compound 135, Racemic-(2-exo,3-exo)-N6-(3-aminocarbonylbicyclo[2.2. 1]hept-5-en-2-yl)-N2-(1H-indol-4-yl)-1H-purine-2,6-diamine], the IC50 [5] was less than 5 µM and the IC50 [6] was greater than 10 µM.
For `Cc1cc(Nc2ncc(F)c(NC3CCCC3C(N)=O)n2)ccc1N1CCN(C)CC1` [trans (1R,2R) diastereomer, N4-(2-aminocarbonylcyclopent-1-yl)-5-fluoro-N2-[4-(4-methylpiperazin-1-yl)-3-methylphenyl]-2,4-pyrimidinediamine], the “inhibition of Aurora kinases” value [9] is given as “inhibited Aurora kinases”, the “antiproliferative activity” value [8] is given as “inhibit the proliferation” and the “antiproliferative activity” value ([8]; listed as trans(1R,2R)) is given as “exhibited antiproliferative activity”.
For `Cc1cccc(Nc2nc(NC3C4CCC(C4)C3C(N)=O)c3cc[nH]c3n2)c1` (racemic) [Compound 165, Racemic-(2-exo,3-exo)-N4-(3-aminocarbonylbicyclo[2.2. 1]hept-2-yl)-N2-(3-methyl)phenyl-1H-pyrrolo[2,3-d]pyrimidine-2,4-diamine], the IC50 [5] was less than 5 µM.
